Consider 2 compounds from article PMC5563081, “Modulating Protein-Protein Interactions of the Mitotic Polo-like Kinases to Target Mutant KRAS” (Cell Chemical Biology, 2017).

One assay deals with Panc-1. Nature of the assay: Cell viability (SRB), Panc-1. It counts as cell-based, human. To be noted: Homo sapiens, PANC-1, 72 h; for GI50: read-out: Abs GI50. The method, then:
(§1) SW48 Parental, SW48 G12D, Panc-1, HPAF-II, Panc 02.03 and Panc 05.04 cell lines were seeded overnight at 5000 cells per well in a 96 well plate in recommended media (ATCC). Compounds were added the following day and viability was measured at 72h using the sulforhodamine B (SRB) colorimetric assay as follows. Cells were fixed by replacing media with 1% v/v Trichloroacetic Acid (TCA) (Sigma-Aldrich) at 4°C and incubated for 1h also at 4°C. Wells were washed thoroughly with copious amounts of deionised water before staining with Sulforhodamine B (SRB) (Sigma-Aldrich) solution (0.057% w/v in 1% v/v Acetic Acid (VWR)) for 30 min. Stain was aspirated and wells washed with several changes of 1% v/v Acetic Acid until unbound stain was removed, before air-drying. Bound stain was solubilized with 100μl / well 10mM Tris (pH 8.0) (Trizma Base (121.1) Sigma-Aldrich) with agitation for 10 min. Fluorescence intensity was recorded at Ex540nm / Em590nm using a BMG Pherastar Plus plate reader ([Vichai and Kirtikara, 2006]).
Pancreatic organoids were extracted and cultured as detailed above ([Boj et al., 2015]). In brief, pancreatic organoids were seeded at 600 cells per well in a 96 well plate and allowed to grow for 7 days with media replenishment on the 3rd day. Full-grown organoids were then treated with compounds for 72h and viability determined using CellTitre Glo 3D assay (Promega). For viability assays with c-MET siRNA, cells were reverse transfected in a 6 cm dish using Dharmafect 1 (GE Dharmacon) per manufacturer’s instructions. On the following day, cells were trypsinised and plated onto 96 well plates or 6 well plates. The 96 well plates were treated with a dose range of compounds or DMSO, and viability was determined via SRB colorimetric assay. Cells in the 6 well plates were collected at the end of experiment to corroborate knockdown of c-MET by Western blotting.
Cells were reverse-transfected with 50nM (SW48 parental, SW48 KRAS G12D and Panc-1) or 25nM (HeLa Flp-In T-REx parental cells) siRNA using Dharmafect (GE Dharmacon) as manufacturer’s recommendations. Where transfected cells were subsequently treated with compounds, the cells were allowed to settle overnight and then treated with compound at the indicated concentration the following day. Viability was assessed after 72 hrs, with the SRB colorimetric assay. Knockdown efficiencies were determined by Western blot or RT-qPCR. Oligos against the following target sequences were used. c-MET (Qiagen): […], […], […]. PLK1 (Qiagen): […]. PLK2 (SMARTpool; Dharmacon): ACACAGAAGGAGAACGAUA, CAUCAAUGAGGAUAGGAUA, CUGCCUAGUGUUACUGAUA, ACAAAGUCUACGCCGCAAA. PLK3 (SMARTpool; Dharmacon): GCGAGAAGAUCCUAAAUGA, GCAAGUGGGUUGACUACUC, GCACAUCCGUUGGCCAUCA, GACCUCAAGUUGGGAAAUU. PLK4 (Qiagen): […].

Assay [1] deals with SW48 parental (KRAS WT) cells. Put plainly: Cell viability (SRB), SW48 parental. The format is cell-based. As to conditions: Homo sapiens. The method, then:
as §1

A further assay concerns the target PLK1 PBD (Homo sapiens, UniProt P53350). Nature of the assay: Fluorescence polarisation (FP) assay, PLK1 PBD. The format is binding. Further details: PLK1 PBD (aa345-603) 84nM; GST (N, cleaved yes); made in house; host or cells: E. coli C41. The method, then: Final concentrations of assay components used in binding assays were as follows: TAMRA-labelled consensus PLK1 PBD binding phosphopeptide, 5-TAMRA-MAGPMQS(pThreonine)PLMGAKK-acid 10nM; PLK1 PBD (aa345-603) 84nM (2.5ng/μl). Assays were carried out in PBS (pH 7.4) plus 0.03% tween. DMSO controls were run alongside all experimental compounds and % inhibition normalised to these controls. Compounds were titrated 2 fold from a top concentration of 250μM giving a maximum final concentration of DMSO in the assay of 0.25%; however the assay can tolerate DMSO up to 5%. Compound and PBD protein were incubated together at 22°C for 1 hour prior to addition of the TAMRA labelled binding phosphopeptide. The total assay volume per well was 45μl. All experiments were performed in NBS black 384-well microtiter plates (Corning). Fluorescence Polarisation (FP) was read using a BMG PheraStar plate reader with a 540/590/590nm FP module and unbound 10nm TAMRA-labelled peptide set to a FP value of 35mP.

The test system of a further assay is SW48 KRAS G12D cells. Put plainly: Cell viability (SRB), SW48 KRAS G12D. It counts as cell-based. As to conditions: Homo sapiens. The method, then:
as §1

Several values for one entry are separate records, joined by “and”; a condition that tells them apart may be missing. Equal entries are not always repeated. Where two headings read alike, the source gives them in different places.

Chain of PLK1 PBD (P53350 345-603): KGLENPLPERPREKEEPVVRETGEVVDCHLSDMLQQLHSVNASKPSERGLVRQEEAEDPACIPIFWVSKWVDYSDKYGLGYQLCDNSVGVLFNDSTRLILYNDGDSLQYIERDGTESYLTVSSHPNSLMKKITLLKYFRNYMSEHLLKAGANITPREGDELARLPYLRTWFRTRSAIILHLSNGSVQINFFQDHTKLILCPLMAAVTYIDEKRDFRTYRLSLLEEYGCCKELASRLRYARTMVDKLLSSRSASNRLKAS

In the case of `CN(C)CCNC(=O)c1ccc(-c2ccc(-c3ccc(Cl)cc3)n2-c2ccccc2C(F)(F)F)cc1` [Poloppin-II], the concentration for 50% growth inhibition (GI50) is 0.314 µM with Panc-1 (Panc-1, individual compound, 72 hr, Figure 7G); 0.0398 ± 0.00112 µM in assay [1] (SW48 Parental, 72 hr, Figure 5D, read-out: GI50); 0.0115 ± 0.00109 µM in the assay with SW48 KRAS G12D cells (SW48 G12D, 72 hr, Figure 5D, read-out: GI50). In addition, the IC50 on PLK1 PBD (read-out: IC50, binding of TAMRA-labeled phosphopeptide to PLK1 PBD) was 40.9 µM and 41 µM.
Regarding `O=C(O)CCc1ccc(-c2ccc(Br)cc2)n1-c1ccccc1C(F)(F)F` [Poloppin], the GI50 with Panc-1 amounted to 33.4 µM; in assay [1] (SW48), 13.7 ± 1.03 µM; with SW48 KRAS G12D cells (SW48), 5.3 ± 1.03 µM. In addition, the EC50 with Panc-1 (read-out: EC50, % survival, Panc-1, All Stars control siRNA, 72 h) is 40.4 ± 1.03 µM; with Panc-1 (read-out: EC50, % survival, Panc-1, siMET, 72 h), 16.8 ± 1.03 µM. For the same compound, the IC50 on PLK1 PBD (IC50, binding of TAMRA-labeled phosphopeptide to PLK1 PBD) came to 26.9 µM.
